Laboratory results as given in publication PMC8224742, “Evaluation of 1β-Hydroxylation of Deoxycholic Acid as a Non-Invasive Urinary Biomarker of CYP3A Activity in the Assessment of Inhibition-Based Drug–Drug Interaction in Healthy Volunteers” (Journal of Personalized Medicine, 2021).

Key:
[1] = Oral MDZ (1.5 mg p.o.) plasma pharmacokinetics (MDZ and 1′-OH-MDZ) alone and after repeated inhibitor administration; conditions: human, in vivo, po, 1.5 mg; for AUC: MDZ AUC0– (zero to infinity); for AUC / AUC(0-t) / Cmax / Tmax: MDZ alone; for AUC / AUC(0-t) / Cmax / half-life / Tmax: MDZ 1.5 mg p.o., geometric mean (90% CI); for AUC(0-t): MDZ AUClast; for Cmax: MDZ Cmax; for half-life: MDZ T1/2, MDZ alone; for Tmax: MDZ Tmax; for AUC(0-inf): Oral MDZ AUC0-inf, Baseline, MDZ 1.5 mg p.o. before inhibitor, geometric mean (range)
Procedure: (§1) ITZ tablets (200 mg) were split equally in two, and 100 mg were given to subjects.
(§2) MDZ acted as a nested control in the evaluation of the endogenous urinary markers, and it was administered both orally (1.5 mg) and intravenously (i.v.; 1.0 mg). Participants were all treated the same way for the baseline and randomly split into 3 arms of 8–10 individuals each to evaluate the effect of the inhibitors. […] MDZ pharmacokinetic (PK) profiling and biomarker sampling was also conducted after the washout period and at the end of the study to determine whether enzyme activity returned to baseline levels. The subjects were their control. Treatment, washout and end of study values were compared with values at baseline.
(§3) Plasma concentrations of MDZ and its metabolite 1′-OH-MDZ were analysed using a validated LC-MS/MS method. Plasma samples were extracted using protein precipitation, where 300 µL of acetonitrile (ACN) containing 500 ng/mL diazepam as an internal standard (IS) was added to 100 µL of plasma. The mixture was then vortexed for 10 min, followed by centrifugation at 10,000× g for 5 min at a temperature of 4 °C. The supernatant was collected, and 5 µL were injected into the LC-MS/MS for analysis.
(§4) The mobile phase consisted of 10 mM ammonium formate in 5% methanol (MeOH) (A) and ACN (B). […] The column temperature was maintained at 40 °C. MDZ and 1′-OH-MDZ were detected on a Sciex 3200 mass spectrometer with a turbo ion spray interphase operated in positive ion mode at 5500 V, a temperature of 5000 °C; GS1 and GS2 at 50 and 60 psi, respectively; and a curtain gas flow of 25 psi. […] The quantification of the MDZ and 1′-OH-MDZ was performed using the Analyst software (version 1.2; Applied Biosystems).
(§5) Standard non-compartmental pharmacokinetic (PK) analysis was performed with the WinNolin program, version 4.1 (Pharsight Corp, Mountain View, CA, USA), using the linear up logarithmic down trapezoidal method. The plasma parameters that were assessed and used for the comparison with the urinary biomarker were MDZ clearance (MDZ CL) and the area under the plasma concentration-time curve (AUC) from zero to infinity (AUC0–inf) of MDZ. More PK parameters were evaluated for MDZ and 1′-OH-MDZ.
(§6) The difference between log-transformed treatment/baseline was calculated pairwise for each subject, as well as for their 90% confidence intervals (CIs). These differences and CIs were anti-log-transformed back for reporting purposes. The same analysis was performed for MDZ clearance and AUC0-inf before and after treatment for comparison.
(§7) The pharmacokinetic (PK) parameters of MDZ were performed by standard noncompartmental
(§8) methods using the WinNolin program, version 4.1 (Pharsight Corp, Mountain View, CA, USA).
(§9) were plotted as graphs of midazolam or 1-OH-midazolam concentration vs. time.

CYP3A [2] = test: as above; conditions: for MDZ CL, MDZ alone: MDZ 1.5 mg p.o., geometric mean (90% CI)
Procedure: as §1, §2, §3, §4, §5, §6, §7, §8, §9

[3] = Intravenous MDZ (1.0 mg i.v.) plasma pharmacokinetics (MDZ and 1′-OH-MDZ) alone and after repeated inhibitor administration; conditions: human, in vivo, iv, 1 mg; for AUC: MDZ AUC0– (zero to infinity); for AUC(0-t): MDZ AUClast; for Cmax: MDZ Cmax; for half-life: MDZ T1/2, MDZ alone; for Tmax: MDZ Tmax; for AUC(0-inf): i.v. MDZ AUC0-inf
Procedure: as §1, §2, §3, §4, §5, §6, §7, §8, §9

CYP3A [4] = test: as above; conditions: human, in vivo, iv, 1 mg, Baseline, ITZ arm, MDZ 1.0 mg i.v. before inhibitor, geometric mean (range)
Procedure: as §1, §2, §3, §4, §5, §6, §7, §8, §9

[5] = MDZ alone, MDZ 1 mg i.v., APZ arm (Table S1), geometric mean (90% CI)
[6] = MDZ alone, MDZ 1 mg i.v., FKZ arm (Table S2), geometric mean (90% CI)
[7] = MDZ alone, MDZ 1 mg i.v., ITZ arm (Table S3), geometric mean (90% CI)

Question: What does the source list for Cc1ncc2n1-c1ccc(Cl)cc1C(c1ccccc1F)=NC2 [MDZ, midazolam]?
Answer: AUC ([1]; APZ arm (Table S1)): 10.6 ng·h/mL; AUC ([1]; FKZ arm (Table S2)): 19.4 ng·h/mL; AUC ([1]; ITZ arm (Table S3)): 9.64 ng·h/mL; AUC(0-t) ([1]; APZ arm (Table S1)): 10.4 ng·h/mL; AUC(0-t) ([1]; FKZ arm (Table S2)): 18.5 ng·h/mL; AUC(0-t) ([1]; ITZ arm (Table S3)): 8.61 ng·h/mL; Cmax ([1]; APZ arm (Table S1)): 4.13 ng/mL; Cmax ([1]; FKZ arm (Table S2)): 6.18 ng/mL; Cmax ([1]; ITZ arm (Table S3)): 4.86 ng/mL; half-life ([1]; APZ arm (Table S1)): 97.8 min; half-life ([1]; FKZ arm (Table S2)): 136 min; half-life ([1]; ITZ arm (Table S3)): 85.8 min; Tmax ([1]; APZ arm (Table S1)): 45.6 min; Tmax ([1]; FKZ arm (Table S2)): 47.4 min; Tmax ([1]; ITZ arm (Table S3)): 37.8 min; AUC(0-inf) ([1]; APZ arm): 10.6 ng·h/mL; AUC(0-inf) ([1]; FKZ arm): 22.7 ng·h/mL; Oral MDZ CL, Baseline (CYP3A [2]; APZ arm, MDZ 1.5 mg p.o. before inhibitor, geometric mean (range)): 59.1 (28.0–220.5) L/h; Oral MDZ CL, Baseline (CYP3A [2]; FKZ arm, MDZ 1.5 mg p.o. before inhibitor, geometric mean (range)): 59.8 (17.0–135.9) L/h; Oral MDZ CL, Baseline (CYP3A [2]; ITZ arm, MDZ 1.5 mg p.o. before inhibitor, geometric mean (range)): 126 (46.7–648.8) L/h; MDZ CL, MDZ alone (CYP3A [2]; APZ arm (Table S1)): 137.34 (101–186) L/h; MDZ CL, MDZ alone (CYP3A [2]; FKZ arm (Table S2)): 77.41 (56.44 – 106.19) L/h; MDZ CL, MDZ alone (CYP3A [2]; ITZ arm (Table S3)): 155.58 L/h; AUC(0-inf) (CYP3A [2]; human, in vivo, po, 1.5 mg, Oral MDZ AUC0-inf, Baseline, ITZ arm, MDZ 1.5 mg p.o. before inhibitor, geometric mean (range)): 10.8 ng·h/mL; AUC [3, 5]: 16.8 ng·h/mL; AUC [3, 6]: 12.4 ng·h/mL; AUC [3, 7]: 13.5 ng·h/mL; AUC(0-t) [3, 5]: 16.6 ng·h/mL; AUC(0-t) [3, 6]: 12 ng·h/mL; AUC(0-t) [3, 7]: 12.9 ng·h/mL; clearance ([3]; MDZ CL, MDZ alone, MDZ 1 mg i.v., APZ arm (Table S1), geometric mean (90% CI)): 998 mL/min; clearance ([3]; MDZ CL, MDZ alone, MDZ 1 mg i.v., FKZ arm (Table S2), geometric mean (90% CI)): 1350 mL/min; clearance ([3]; MDZ CL, MDZ alone, MDZ 1 mg i.v., ITZ arm (Table S3), geometric mean (90% CI)): 1230 mL/min; Cmax [3, 5]: 26 ng/mL; Cmax [3, 6]: 22.6 ng/mL; Cmax [3, 7]: 25 ng/mL; half-life ([3]; MDZ 1 mg i.v., APZ arm (Table S1), geometric mean (90% CI)): 124 min; half-life ([3]; MDZ 1 mg i.v., FKZ arm (Table S2), geometric mean (90% CI)): 93 min; half-life ([3]; MDZ 1 mg i.v., ITZ arm (Table S3), geometric mean (90% CI)): 139 min; Tmax [3, 5]: 17.4 min; Tmax [3, 7]: 16.8 min; AUC(0-inf) ([3]; Baseline, APZ arm, MDZ 1.0 mg i.v. before inhibitor, geometric mean (range)): 16.8 ng·h/mL; AUC(0-inf) ([3]; Baseline, FKZ arm, MDZ 1.0 mg i.v. before inhibitor, geometric mean (range)): 12.4 ng·h/mL; clearance ([3]; i.v. MDZ CL, Baseline, APZ arm, MDZ 1.0 mg i.v. before inhibitor, geometric mean (range)): 993 mL/min; clearance ([3]; i.v. MDZ CL, Baseline, FKZ arm, MDZ 1.0 mg i.v. before inhibitor, geometric mean (range)): 1350 mL/min; AUC(0-inf) (CYP3A [4]; i.v. MDZ AUC0-inf): 12.1 ng·h/mL; clearance (CYP3A [4]; i.v. MDZ CL): 1380 mL/min
